The source made the active and inactive calls. How the calls were made is not given here.
Test system: CCRIS mutagenicity, Ames/micronucleus/aberration tests
Test: CCRIS mutagenicity studies
[1] = Test System: AMES SALMONELLA TYPHIMURIUM, Strain/Indicator: TA100, Metabolic Activation: NONE, Method: PREINCUBATION

Measured: mutagenic call

ClCCOCCCl
active: Test System: AMES SALMONELLA TYPHIMURIUM, Strain/Indicator: TA100, Metabolic Activation: NONE, Method: DESICCATOR active; positive | Test System: AMES SALMONELLA TYPHIMURIUM, Strain/Indicator: TA1535, Metabolic Activation: NONE, Method: PREINCUBATION active; positive
inactive: End Point: IN VITRO CHROMOSOMAL ABERRATIONS, Test System: CHO CELLS, Metabolic Activation: NONE inactive; negative | End Point: IN VITRO CHROMOSOMAL ABERRATIONS, Test System: CHO CELLS, Metabolic Activation: RAT, LIVER, S-9, AROCLOR 1254 inactive; negative | Test System: AMES SALMONELLA TYPHIMURIUM, Strain/Indicator: TA98, Metabolic Activation: HAMSTER, LIVER, S-9, PHENOBARBITAL AND BETA-NAPHTHOFLAVONE, Method: PREINCUBATION inactive; negative | Test System: AMES SALMONELLA TYPHIMURIUM, Strain/Indicator: TA98, Metabolic Activation: NONE, Method: PREINCUBATION inactive; negative | Test System: AMES SALMONELLA TYPHIMURIUM, Strain/Indicator: TA98, Metabolic Activation: RAT, LIVER, S-9, PHENOBARBITAL AND BETA-NAPHTHOFLAVONE, Method: PREINCUBATION inactive; negative | Test System: AMES SALMONELLA TYPHIMURIUM, Strain/Indicator: TA100, Metabolic Activation: HAMSTER, LIVER, S-9, PHENOBARBITAL AND BETA-NAPHTHOFLAVONE, Method: PREINCUBATION inactive; negative | [1] inactive; negative | Test System: AMES SALMONELLA TYPHIMURIUM, Strain/Indicator: TA100, Metabolic Activation: RAT, LIVER, S-9, PHENOBARBITAL AND BETA-NAPHTHOFLAVONE, Method: PREINCUBATION inactive; negative | Test System: AMES SALMONELLA TYPHIMURIUM, Strain/Indicator: TA1537, Metabolic Activation: HAMSTER, LIVER, S-9, PHENOBARBITAL AND BETA-NAPHTHOFLAVONE, Method: PREINCUBATION inactive; negative | Test System: AMES SALMONELLA TYPHIMURIUM, Strain/Indicator: TA1537, Metabolic Activation: NONE, Method: PREINCUBATION inactive; negative | Test System: AMES SALMONELLA TYPHIMURIUM, Strain/Indicator: TA1537, Metabolic Activation: RAT, LIVER, S-9, PHENOBARBITAL AND BETA-NAPHTHOFLAVONE, Method: PREINCUBATION inactive; negative | Test System: E. COLI, Strain/Indicator: WP2UVRA, Metabolic Activation: NONE, Method: PREINCUBATION inactive; negative | Test System: E. COLI, Strain/Indicator: WP2UVRA, Metabolic Activation: RAT, LIVER, S-9, PHENOBARBITAL AND BETA-NAPHTHOFLAVONE, Method: PREINCUBATION inactive; negative

Nc1c(Oc2ccccc2)cc(O)c2c1C(=O)c1ccccc1C2=O
active: Test System: AMES SALMONELLA TYPHIMURIUM, Strain/Indicator: TA98, Metabolic Activation: HAMSTER, LIVER, S-9, AROCLOR 1254 (10%), Method: STANDARD PLATE active; positive | Test System: AMES SALMONELLA TYPHIMURIUM, Strain/Indicator: TA98, Metabolic Activation: NONE, Method: STANDARD PLATE active; positive | Test System: AMES SALMONELLA TYPHIMURIUM, Strain/Indicator: TA98, Metabolic Activation: RAT, LIVER, S-9, AROCLOR 1254 (10%), Method: STANDARD PLATE active; positive
inactive: Test System: AMES SALMONELLA TYPHIMURIUM, Strain/Indicator: TA100, Metabolic Activation: HAMSTER, LIVER, S-9, AROCLOR 1254 (10%), Method: STANDARD PLATE inactive; negative | Test System: AMES SALMONELLA TYPHIMURIUM, Strain/Indicator: TA100, Metabolic Activation: NONE, Method: STANDARD PLATE inactive; negative | Test System: AMES SALMONELLA TYPHIMURIUM, Strain/Indicator: TA100, Metabolic Activation: RAT, LIVER, S-9, AROCLOR 1254 (10%), Method: STANDARD PLATE inactive; negative | Test System: MOUSE LYMPHOMA, Strain/Indicator: L5178Y (TK+/TK-), Metabolic Activation: RAT, LIVER, S-9, AROCLOR 1254, Method: SUSPENSION/PLATE inactive; negative. reevaluation of results: negative

ClC[C@@H](Br)CBr
active: Test System: AMES SALMONELLA TYPHIMURIUM, Strain/Indicator: TA100, Metabolic Activation: RAT, LIVER, MICROSOMES, Method: PREINCUBATION active; positive

C[C@H](CCC(=O)NCC(=O)O)[C@H]1CC[C@H]2[C@@H]3[C@@H](O)C[C@@H]4C[C@H](O)CC[C@]4(C)[C@H]3CC[C@]12C
inactive: Test System: Ames Salmonella typhimurium, Strain/Indicator: TA98, Metabolic Activation: Rat, Liver, S-9, Aroclor 1254, Method: Plate incorporation inactive; negative

CC/C=C\CC/C=C/C=O
inactive: [1] inactive; negative | Test System: AMES SALMONELLA TYPHIMURIUM, Strain/Indicator: TA100, Metabolic Activation: NONE, Method: PREINCUBATION (THREEFOLD CELL DENSITY) inactive; negative | Test System: AMES SALMONELLA TYPHIMURIUM, Strain/Indicator: TA100, Metabolic Activation: RAT, LIVER, S-9, AROCLOR 1254, Method: PREINCUBATION (THREEFOLD CELL DENSITY) inactive; negative

CN(Cc1cccc(C(F)(F)F)c1)N=O
inactive: Test System: AMES SALMONELLA TYPHIMURIUM, Strain/Indicator: TA1535, Metabolic Activation: NONE, Method: STANDARD PLATE inactive; negative
active: Test System: AMES SALMONELLA TYPHIMURIUM, Strain/Indicator: TA1535, Metabolic Activation: HAMSTER, LIVER, S-9, AROCLOR 1254, Method: STANDARD PLATE active; positive
